Measurements: US12384756B2, “Piperidinedione derivatives” (INNOCURE THERAPEUTICS, INC., priority 2021, dated 2025)

Legend:
CRBN = target: T1, CRBN (Homo sapiens, UniProt Q96SW2); assay: NanoBRET intracellular E3 ligase assay, CRBN binding affinity; conditions: BRET assay, compared with pomalidomide
T1 construct: host or cells: HEK 293T
Protocol: The binding affinity of the synthesized compounds to CRBN E3 ligase was measured using PROMEGA NANOBRET™ Intracellular E3 ligase Assay, CRBN [cat #N2910]. Bioluminescence resonance energy transfer (BRET) assay is a method that the transfer of luminescence energy of POI into a bound fluorescent tracer is measured. […] Thus, the affinity of a compound to the POI can be measure.
9.0 mg/ml of DDB1 expression vector and 1.0 mg/ml of NanoLuc-CRBN fusion vector were transfected using LIPOFECTAMINE™ 3000.
Then, the cell lines were treated with a compound prepared at various concentrations, and then mixed for 15 seconds. Then, cell walls were broken by using digitonin, and the mixture was reacted for 25 minutes. Then, the mixture was treated with luciferase substrate. The luminescence intensity and the fluorescence intensity were measure at donor emission wavelength (450 nm) and at acceptor emission wavelength (610 nm), and then BRET ratio was calculated and normalized. BRET ratio was calculated by the following formula: BRET ratio: Acceptor/Donor×1000 [4] CRBN Binding Affinity of the Compound

SHP2 = target: T2, SHP2 (Homo sapiens, UniProt Q06124); assay: SHP2 protein degradation by western blot in MV-4-11 cells; type: cell-based; conditions: MV-4-11, 24 hours; for DC50: 50% inhibition of protein expression, read-out: DC50 of SHP2-targeted PROTAC
T2 construct: SHP2 expressed in cells; endogenous in cells; host or cells: MV-4-11
T2 sequence (Q06124 1-593): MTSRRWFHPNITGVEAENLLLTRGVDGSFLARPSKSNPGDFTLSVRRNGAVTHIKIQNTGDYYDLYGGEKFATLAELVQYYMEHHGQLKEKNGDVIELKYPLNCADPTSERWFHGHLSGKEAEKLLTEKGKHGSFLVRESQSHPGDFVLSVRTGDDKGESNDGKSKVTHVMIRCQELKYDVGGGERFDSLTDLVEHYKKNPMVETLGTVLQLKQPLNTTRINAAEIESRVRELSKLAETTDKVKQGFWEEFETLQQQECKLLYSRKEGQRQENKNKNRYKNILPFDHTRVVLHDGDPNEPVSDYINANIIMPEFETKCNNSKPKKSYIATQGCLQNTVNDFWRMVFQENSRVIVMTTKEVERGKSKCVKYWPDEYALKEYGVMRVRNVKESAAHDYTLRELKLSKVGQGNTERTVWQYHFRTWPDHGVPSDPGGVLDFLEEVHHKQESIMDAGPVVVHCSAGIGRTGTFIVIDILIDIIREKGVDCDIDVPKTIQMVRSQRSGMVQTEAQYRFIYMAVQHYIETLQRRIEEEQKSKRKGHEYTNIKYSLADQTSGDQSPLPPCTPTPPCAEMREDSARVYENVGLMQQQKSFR
Protocol: (§1) Human hematologic cancer cell line [MV-4-11] was cultured in IMDM medium with 10% fetal bovine serum, penicillin [100 U/ml] and streptomycin [[…]]. The synthesized compound was prepared with a stock solution of 10 mM or 50 mM dissolved in DMSO [dimethyl sulfoxide], and it was sequentially diluted to treat the cell line.
To observe the PROTAC's degradation ability to SHP2 expressed in cells, the cells were aliquoted into a 12 well plate at a concentrations of 3×10^5 cells/well, and then the sample was treated for 24 hours. In order to conduct western blotting assay to confirm protein expression, the cell treated with the compound was treated for 30 minutes with 70 μL of RIPA buffer with wherein protease inhibitor is added. Then, cell lysate was collected on ice using a scraper and centrifuged at 4° C. 15,000 rpm for 30 minutes to obtain a supernatant containing protein. Then, SDS-PAGE is conducted for 10 μg of protein per sample, and the protein is transferred to a membrane. The protein is reacted with antibodies of anti-SHP2 and anti-GAPDH at 4° C. for 16 hours, and then, reacted with the secondary antibodies at room temperature for 1 hour. The protein expression is confirmed using SuperSignal™ West Pico PLUS chemiluminescence substrate and image analyzer. The protein expression inhibition was normalized based on the expression value of GAPDH. The amount of protein expression in each sample was measured based on the sample treated with 0.1% DMSO vehicle which was set to 100%. The amount of protein expression was quantified using the Image J program. The change in the amount of protein expression due to the treatment of compound (DC50: the concentration of compounds where the 50% inhibition of protein expression is achieved) was calculated using GraphicPad Prism 8.0 software.

[1] = system: Human hematologic cancer cell line [MV-4-11]; assay: Anti-proliferative activity (WST-8) of SHP2 targeted PROTAC in MV-4-11; type: cell-based; conditions: MV-4-11, 72 hours; for IC50: Homo sapiens, MV4-11, WST-8, read-out: IC50 of SHP2-targeted PROTAC (cell proliferation)
Protocol: as §1
The cell survival was calculated by steps of adding in each well […] of water soluble tetrazolium salt (WST-8) which produces formazon in response to dehydrogenase present in the electron transport chain in mitochondria, incubating for 3 hours, measuring the absorbance at 450 nm, and calculating […] PRISM 8.0 software.

T1 sequence (Q96SW2 whole entry): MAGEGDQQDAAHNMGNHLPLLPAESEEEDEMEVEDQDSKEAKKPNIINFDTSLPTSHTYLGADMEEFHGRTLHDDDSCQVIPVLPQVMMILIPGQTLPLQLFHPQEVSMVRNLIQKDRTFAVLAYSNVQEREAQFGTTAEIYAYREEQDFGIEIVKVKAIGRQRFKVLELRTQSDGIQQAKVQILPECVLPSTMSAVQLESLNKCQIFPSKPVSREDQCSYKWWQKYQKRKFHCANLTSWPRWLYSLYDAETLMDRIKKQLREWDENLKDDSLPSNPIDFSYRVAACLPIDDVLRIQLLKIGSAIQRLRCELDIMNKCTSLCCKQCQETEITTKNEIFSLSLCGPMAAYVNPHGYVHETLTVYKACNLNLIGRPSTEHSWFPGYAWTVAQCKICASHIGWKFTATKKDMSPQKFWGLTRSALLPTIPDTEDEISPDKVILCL
T1 sequence (Q16531 whole entry partner): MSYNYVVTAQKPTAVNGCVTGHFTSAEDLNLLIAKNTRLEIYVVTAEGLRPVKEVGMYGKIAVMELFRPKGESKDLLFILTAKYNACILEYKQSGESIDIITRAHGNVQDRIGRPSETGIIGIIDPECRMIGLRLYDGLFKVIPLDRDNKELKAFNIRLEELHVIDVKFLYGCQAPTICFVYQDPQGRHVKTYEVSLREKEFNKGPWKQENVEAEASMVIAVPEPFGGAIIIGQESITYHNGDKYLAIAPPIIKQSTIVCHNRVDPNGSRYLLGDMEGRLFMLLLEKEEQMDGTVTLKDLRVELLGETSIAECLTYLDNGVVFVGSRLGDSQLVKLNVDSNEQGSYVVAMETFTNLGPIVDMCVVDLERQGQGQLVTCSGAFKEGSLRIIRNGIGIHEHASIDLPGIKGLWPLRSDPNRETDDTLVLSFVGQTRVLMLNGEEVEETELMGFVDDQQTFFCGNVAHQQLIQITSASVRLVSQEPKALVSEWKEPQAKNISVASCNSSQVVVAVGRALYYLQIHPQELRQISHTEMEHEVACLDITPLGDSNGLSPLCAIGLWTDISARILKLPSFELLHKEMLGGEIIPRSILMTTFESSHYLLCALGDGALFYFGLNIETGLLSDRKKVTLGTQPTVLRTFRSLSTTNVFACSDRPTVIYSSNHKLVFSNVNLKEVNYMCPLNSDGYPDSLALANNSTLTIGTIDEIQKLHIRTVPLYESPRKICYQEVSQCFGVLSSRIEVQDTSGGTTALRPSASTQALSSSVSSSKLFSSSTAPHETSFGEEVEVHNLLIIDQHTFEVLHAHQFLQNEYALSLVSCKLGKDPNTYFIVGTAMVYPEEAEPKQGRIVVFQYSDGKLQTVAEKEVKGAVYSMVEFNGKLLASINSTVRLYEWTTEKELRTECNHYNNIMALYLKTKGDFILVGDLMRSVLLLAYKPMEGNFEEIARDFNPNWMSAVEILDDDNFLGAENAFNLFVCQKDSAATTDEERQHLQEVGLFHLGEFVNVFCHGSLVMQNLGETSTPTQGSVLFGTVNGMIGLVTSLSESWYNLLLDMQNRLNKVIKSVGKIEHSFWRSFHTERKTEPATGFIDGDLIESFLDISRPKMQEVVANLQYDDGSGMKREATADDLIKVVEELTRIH

| Structure (SMILES) | CRBN binding affinity (in words) (CRBN) | SHP2 degradation (in words) (SHP2) | DC50 (SHP2) [nM] | IC50 [1] [nM] | inhibition of cancer cell proliferation (in words) [1] |
| --- | --- | --- | --- | --- | --- |
| Cc1nn(C2CCC(=O)NC2=O)c(=O)c2c(N)cccc12 (stereo not shown) [Ex. 8, 3-(8-amino-4-methyl-1-oxophthalazin-2(1H)-yl)piperidine-2,6-dione] | excellent | – | – | – | – |
| C[C@@H]1OCC2(CCN(c3cnc(Sc4cccc(NC(=O)CCC(=O)NCCCOCCOCCOCCCNc5ccc6c(=O)n(C7CCC(=O)NC7=O)ncc6c5)c4Cl)c(N)n3)CC2)[C@@H]1N (stereo partly drawn) [Example 73, N1-(3-((3-amino-5-((3S,4S)-4-amino-3-methyl-2-oxa-8-azaspiro[4.5]decan-8-yl)pyrazin-2-yl)thio)-2-chlorophenyl)-N4-(3-(2-(2-(3-((2-(2,6-dioxopiperidin-3-yl)-1-oxo-1,2-dihydrophthalazin-6-yl)amino)propoxy)ethoxy)ethoxy)propyl)succinamide] | – | effectively degraded | 29.9 | 507 | inhibited effectively |
| C[C@@H]1OCC2(CCN(c3cnc(Sc4cccc(NC(=O)CCC(=O)N5CCN(C(=O)CCOCCOCCOCCOCCOCCOCCNc6cccc7cnn(C8CCC(=O)NC8=O)c(=O)c67)CC5)c4Cl)c(N)n3)CC2)[C@@H]1N (stereo partly drawn) [Example 79, N-(3-((3-amino-5-((3S,4S)-4-amino-3-methyl-2-oxa-8-azaspiro[4.5]decan-8-yl)pyrazin-2-yl)thio)-2-chlorophenyl)-4-(4-(1-((3-(2,6-dioxopiperidin-3-yl)-4-oxo-3,4-dihydrophthalazin-5-yl)amino)-3,6,9,12,15,18-hexaoxahenicosane-21-oyl)piperazin-1-yl)-4-oxobutanamide] | – | effectively degraded | 23.6 | 337 | inhibited effectively |
| Cc1nn(C2CCC(=O)NC2=O)c(=O)c2c(F)cccc12 (stereo not shown) [Ex. 7, 3-(8-fluoro-4-methyl-1-oxophthalazin-2(1H)-yl)piperidine-2,6-dione] | excellent | – | – | – | – |
| C[C@@H]1OCC2(CCN(c3cnc(Sc4cccc(NC(=O)CCC(=O)N5CCN(C(=O)CCOCCOCCOCCOCCNc6cccc7cnn(C8CCC(=O)NC8=O)c(=O)c67)CC5)c4Cl)c(N)n3)CC2)[C@@H]1N (stereo partly drawn) [Example 77, N-(3-((3-amino-5-((3S,4S)-4-amino-3-methyl-2-oxa-8-azaspiro[4.5]decan-8-yl)pyrazin-2-yl)thio)-2-chlorophenyl)-4-(4-(1-((3-(2,6-dioxopiperidin-3-yl)-4-oxo-3,4-dihydrophthalazin-5-yl)amino)-3,6,9,12-tetraoxapentadecan-15-oyl)piperazin-1-yl)-4-oxobutanamide] | – | effectively degraded | 70.2 | 685 | inhibited effectively |
| C[C@@H]1OCC2(CCN(c3cnc(Sc4cccc(NC(=O)CCC(=O)N5CCN(C(=O)CCOCCOCCOCCOCCOCCNc6cccc7cnn(C8CCC(=O)NC8=O)c(=O)c67)CC5)c4Cl)c(N)n3)CC2)[C@@H]1N (stereo partly drawn) [Example 78, N-(3-((3-amino-5-((3S,4S)-4-amino-3-methyl-2-oxa-8-azaspiro[4.5]decan-8-yl)pyrazin-2-yl)thio)-2-chlorophenyl)-4-(4-(1-((3-(2,6-dioxopiperidin-3-yl)-4-oxo-3,4-dihydrophthalazin-5-yl)amino)-3,6,9,12,15-pentaoxaoctadecan-18-oyl)piperazin-1-yl)-4-oxobutanamide] | – | effectively degraded | 24.1 | 422 | inhibited effectively |
| COc1cccc2cnn(C3CCC(=O)NC3=O)c(=O)c12 (stereo not shown) [Ex. 11, 3-(8-methoxy-1-oxophthalazin-2(1H)-yl)piperidine-2,6-dione] | excellent | – | – | – | – |
